Source: patent publication US6277860A, “Furopyridine antibacterials” (Pfizer Inc, priority 1999, dated 2001)
Converted amounts (≈) assume the structure as drawn. Like-named read-outs stand apart in the source and are kept apart here.

Tests used:
S. aureus 01A1105 = test: MIC by serial agar dilution method, S. aureus 01A1105; type: cell-based, Staphylococcus aureus
Method: (§1) Other strains which have similar characteristics of resistance to drugs may be also used. Such strains are usually available for those skilled in the art.
(§2) MIC: minimum inhibitory concentration; for more detail see below.
(§3) Each strain of S. aureus 01A1105, E faecalis 03A1069 and E. coli 51A0266 is inoculated and grown in tube containing 10 ml of Trypticase Soy Broth (TSB, DIFCO), overnight at 37° C. shaking at 200 rpm. The cell-concentration of the culture is adjusted by dilution with TSB and 50% aqueous glycerol to an optical density of 1.4 at 600 nm (light path=1 cm) and a final glycerol concentration of 20%. The diluted culture is dispensed to cryotubes, 1 ml per vial, and stored at -80° C. until its use.
(§4) Each stock culture, 200 μl for S. aureus and E. coli and 1 ml for E. faecalis, is added to 100 ml of Mueller Hinton medium (DIFCO), mixed and poured into an assay plate. The stock culture (1 ml) of S. pyogenes is inoculated into a tube containing 20 ml TSB and 1.0 ml defibrinated horse blood (Nippon Bio-Supply Center), and incubated statically at 37° C. for 24 hours. The incubated culture (5 ml) and 5 ml of sheep blood (Nippon Bio-Supply Center) were added to Mueller Hinton medium (100 ml), mixed and poured into an assay plate.
(§5) For determination of minimum inhibitory concentration (MIC), serial agar dilution method is used with same incubation condition as described above. The growth of bacteria is monitored by measuring the optical density at 655 nm.
(§6) The compound prepared in Example 1(2R*,3R*-2,3-dihydro-2-[(E)-2-buten-2-yl]-4-hydroxy-3-methyl-5-phenylfuro[2,3-b]pyridine-3-carbaldehyde ) was tested according to the assay method described in pages 12 to 14.

S. pyogenes 02C1068 = test: MIC by serial agar dilution method, S. pyogenes 02C1068; type: cell-based; conditions: for MIC: Streptococcus pyogenes
Method: as §1, §2
The strain of S. pyogenes 02C1068 was inoculated and grown in tubes, containing 10 ml of TSB with 0.5 ml of lysed horse blood (Nippon Bio-Supply Center), statically for 24 hours at 37° C. After the incubation, the cells were centrifuged and resuspended in a mixture of 50% aqueous glycerol (4 ml) and defibrinated sheep blood (6 ml, Nippon Bio-Supply Center). The resulting cell-suspension was dispensed to cryotubes, 1 ml per vial, and stored at -80° C. until its use.
as §4, §5, §6

[1] = test system: Enterococcus faecalis 03A1069; test: MIC by serial agar dilution method, Enterococcus faecalis 03A1069; type: cell-based
Method: as §1, §2, §3, §4, §5, §6

various bacteria = test: Antibacterial assay, overall result in words; type: cell-based
Method: Sample solution is loaded and dried on a paper disk (i.d. 6 mm, thin, Advantec) which is placed on the assay plate and incubated overnight at 37° C. The activity is determined by measuring the size of growth-inhibition zone around the disk. As controls, vancomycin 1 μg and tetracycline 1 μg disks are used.
as §5, §6

Escherichia coli 51A0266 = test: MIC by serial agar dilution method, Escherichia coli 51A0266; type: cell-based
Method: as §1, §2, §3
Each stock culture, 200 μl for S. aureus and E. coli and 1 ml for E. faecalis, is added to 100 ml of Mueller Hinton medium (DIFCO), mixed and poured into an assay plate. The stock culture (1 ml) of S. pyogenes is inoculated into a tube containing 20 ml TSB and 1.0 ml defibrinated horse blood (Nippon Bio-Supply Center), and incubated statically at 37° C. for 24 hours. […]
For determination of minimum inhibitory concentration (MIC), serial agar dilution method is used with same incubation condition as described above. The growth of bacteria is monitored by measuring the optical density at 655 nm. […]

H. influenzae 54A0131 = test: MIC by serial agar dilution method, H. influenzae 54A0131; type: cell-based, Haemophilus influenzae
Method: as §2, §5, §6

E. coli 51A1073 = test: MIC by serial agar dilution method, E. coli 51A1073; type: cell-based, Escherichia coli
Method: as §2, §5, §6

[2] = test system: Moraxella catarrhalis 87A1055; test: MIC by serial agar dilution method, Moraxella catarrhalis 87A1055; type: cell-based
Method: as §2, §5, §6

S. pneumoniae 02J1046 = test: MIC by serial agar dilution method, S. pneumoniae 02J1046; type: cell-based, Streptococcus pneumoniae
Method: as §2, §5, §6

S. hemolyticus 01E1006 = test: MIC by serial agar dilution method, S. hemolyticus 01E1006; type: cell-based
Method: as §2, §5, §6

[3] = test system: Staphylococcus aureus 01A1095; test: MIC by serial agar dilution method, Staphylococcus aureus 01A1095; type: cell-based
Method: as §2, §5, §6

S. pyogenes 02C1079 = test: MIC by serial agar dilution method, S. pyogenes 02C1079; type: cell-based
Method: as §2, §5, §6

E. coli 51A1051 = test: MIC by serial agar dilution method, E. coli 51A1051; type: cell-based, Escherichia coli
Method: as §2, §5, §6

S. aureus 01A1120 = test: MIC by serial agar dilution method, S. aureus 01A1120; type: cell-based, Staphylococcus aureus
Method: as §2, §5, §6

E. coli 51A1074 = test: MIC by serial agar dilution method, E. coli 51A1074; type: cell-based, Escherichia coli
Method: as §2, §5, §6

E. coli 51A1075 = test: MIC by serial agar dilution method, E. coli 51A1075; type: cell-based, Escherichia coli
Method: as §2, §5, §6

[4] = test system: Streptococcus agalactiae 02B1023; test: MIC by serial agar dilution method, Streptococcus agalactiae 02B1023; type: cell-based
Method: as §2, §5, §6

S. pneumoniae 02J1095 = test: MIC by serial agar dilution method, S. pneumoniae 02J1095; type: cell-based, Streptococcus pneumoniae
Method: as §2, §5, §6

[5] = test system: Haemophilus influenzae 54A0085; test: MIC by serial agar dilution method, Haemophilus influenzae 54A0085; type: cell-based
Method: as §2, §5, §6

[6] = Staphylococcus aureus 01A1105, antibiotic resistance of strain, read-out: MIC (minimum inhibitory concentration)
[7] = Storeptococcus pyogenes 02C1068, antibiotic resistance of strain, read-out: MIC (minimum inhibitory concentration)
[8] = Staphylococcus aureus, 01A1105, read-out: MIC (minimum inhibitory concentration)
[9] = Enterococcus faecalis, 03A1069, read-out: MIC (minimum inhibitory concentration)

## CO/N=C(\C(=O)N[C@@H]1C(=O)N2C(C(=O)O)=C(COC(C)=O)CS[C@H]12)c1csc(N)n1 [cefataxime]
S. aureus 01A1105; [6]
  MIC: > 256 µg/mL

## CCC[C@@H]1C[C@@H](C(=O)N[C@@H]([C@H]2O[C@H](SC)[C@H](O)[C@@H](O)[C@H]2O)[C@H](C)Cl)N(C)C1 [clindamycin]
S. aureus 01A1105; [6]
  MIC: > 256 µg/mL
S. pyogenes 02C1068; [7]
  MIC: > 64 µg/mL

## CC[C@H]1OC(=O)[C@H](C)[C@@H](O[C@H]2C[C@@](C)(OC)[C@@H](O)[C@H](C)O2)[C@H](C)[C@@H](O[C@@H]2O[C@H](C)C[C@H](N(C)C)[C@H]2O)[C@](C)(O)C[C@@H](C)C(=O)[C@H](C)[C@@H](O)[C@]1(C)O [erythromycin]
S. aureus 01A1105; [8]
  MIC: > 256 µg/mL
S. pyogenes 02C1068; 02C1068, read-out: MIC (minimum inhibitory concentration)
  MIC: > 64 µg/mL

## COc1cccc(OC)c1C(=O)N[C@@H]1C(=O)N2[C@@H]1SC(C)(C)[C@@H]2C(=O)O [methicillin]
S. aureus 01A1105; [6]
  MIC: > 256 µg/mL

## O=C(N[C@H](CO)[C@H](O)c1ccc([N+](=O)[O-])cc1)C(Cl)Cl [chloramphenicol]
[1]; [9]
  MIC: 16 µg/mL (≈ 49.5 µM)

## O=C(O)c1cn(C2CC2)c2cc(N3CCNCC3)c(F)cc2c1=O [ciprofloxacin]
S. aureus 01A1105; [8]
  MIC: > 32 µg/mL

## CC1(C)S[C@@H]2[C@H](NC(=O)Cc3ccccc3)C(=O)N2[C@H]1C(=O)O [penicillin G]
S. aureus 01A1105; [8]
  MIC: 64 µg/mL (≈ 191 µM)
[1]; [9]
  MIC: 6 µg/mL (≈ 17.9 µM)

## CC[C@H]1OC(=O)[C@H](C)[C@@H](O[C@H]2C[C@@](C)(OC)[C@@H](O)[C@H](C)O2)[C@H](C)[C@@H](O[C@@H]2O[C@H](C)C[C@H](N(C)C)[C@H]2O)[C@](C)(O)C[C@@H](C)CN(C)[C@H](C)[C@@H](O)[C@]1(C)O [azithromycin]
[1]; Enterococcus faecalis 03A1069, antibiotic resistance of strain, read-out: MIC (minimum inhibitory concentration)
  MIC: > 256 µg/mL
S. pyogenes 02C1068; [7]
  MIC: > 16 µg/mL

## CC(=O)OCC1=C(C(=O)O)N2C(=O)[C@@H](NC(=O)Cc3cccs3)[C@H]2SC1 [cephalothin]
[1]; [9]
  MIC: 128 µg/mL (≈ 323 µM)

## C/C=C(\C)[C@H]1Oc2ncc(-c3ccccc3)c(O)c2[C@@]1(C)C=O (relative stereo) [Example 1, 2R*,3R*-2,3-dihydro-2-[(E)-2-buten-2-yl]-4-hydroxy-3-methyl-5-phenylfuro[2,3-b]pyridine-3-carbaldehyde]
Various bacteria
  antibacterial activity against various bacteria: remarkable antibacterial activity against various bacteria
Escherichia coli 51A0266; Escherichia coli 51A0266
  minimum inhibitory concentration (MIC): > 100
H. influenzae 54A0131
  minimum inhibitory concentration (MIC): 100
E. coli 51A1073
  minimum inhibitory concentration (MIC): > 100
[2]
  minimum inhibitory concentration (MIC): 50
S. pneumoniae 02J1046
  minimum inhibitory concentration (MIC): 25
S. hemolyticus 01E1006
  minimum inhibitory concentration (MIC): 100
[3]
  minimum inhibitory concentration (MIC): 100
S. aureus 01A1105; S. aureus 01A1105, multidrug resistant
  minimum inhibitory concentration (MIC): 25
S. pyogenes 02C1079
  minimum inhibitory concentration (MIC): 12.5
E. coli 51A1051
  minimum inhibitory concentration (MIC): > 100
S. aureus 01A1120
  minimum inhibitory concentration (MIC): 25
E. coli 51A1074
  minimum inhibitory concentration (MIC): > 100
[1]; Enterococcus faecalis 03A1069, multidrug resistant
  minimum inhibitory concentration (MIC): 100
E. coli 51A1075
  minimum inhibitory concentration (MIC): 100
S. pyogenes 02C1068; S. pyogenes 02C1068, multidrug resistant
  minimum inhibitory concentration (MIC): 6.25
[4]
  minimum inhibitory concentration (MIC): 25
S. pneumoniae 02J1095
  minimum inhibitory concentration (MIC): 6.25
[5]
  minimum inhibitory concentration (MIC): 50

## CN[C@H](CC(C)C)C(=O)N[C@H]1C(=O)N[C@@H](CC(N)=O)C(=O)N[C@H]2C(=O)N[C@H]3C(=O)N[C@H](C(=O)N[C@H](C(=O)O)c4cc(O)cc(O)c4-c4cc3ccc4O)[C@H](O)c3ccc(c(Cl)c3)Oc3cc2cc(c3O[C@@H]2O[C@H](CO)[C@@H](O)[C@H](O)[C@H]2O[C@H]2C[C@](C)(N)[C@H](O)[C@H](C)O2)Oc2ccc(cc2Cl)[C@H]1O [vancomycin, reference compound]
Escherichia coli 51A0266; Escherichia coli, 51A0266, read-out: MIC (minimum inhibitory concentration)
  MIC: > 128 µg/mL
[1]; [9]
  MIC: 24 µg/mL (≈ 16.6 µM)

## CN(C)C1C(=O)C(C(N)=O)=C(O)C2(O)C(=O)C3=C(O)c4c(O)cccc4C(C)(O)C3CC12 (stereo not drawn) [tetracycline]
S. aureus 01A1105; [8]
  MIC: 128 µg/mL (≈ 288 µM)

## gentamicin
S. aureus 01A1105; Staphylococcus aureus 01A1105, antibiotic resistance of strain
  MIC (minimum inhibitory concentration): 64 µg/mL
